Results taken from publication PMC5131319, “Occurrence, temporal trends, and half-lives of perfluoroalkyl acids (PFAAs) in occupational workers in China” (Scientific Reports, 2016).
Values joined by “and” are separate entries in the source; they are usually repeats but may differ in a detail not shown here. Equal values may be shown once.

Legend:
[1] = Daily renal clearance rate (Clrenal) and serum-to-urine ratio from paired serum and urine; assay type: in vivo, human; conditions: for Ratio of serum-to-urine concentrations (S/U), GM: all samples; for Clrenal, GM / Clrenal, range: all workers; for Clrenal, range: minimum on the basis of LOD/2; for Renal clearance rate (PFOA) / Renal clearance rate (PFOS): individual workers
Description: The positive correlations between the PFAAs in the serum and the paired urine samples were highly statistically significant, with correlation coefficients of 0.87, 0.64, and 0.72 for PFHxS, PFOA, and PFOS, respectively, (p < 0.01). […] Additionally, the relative abundances of PFOS, PFHxS, and PFOA between the serum and paired urine samples were quite different. The relative abundances in the serum are 64%, 24%, and 12%, respectively, while those in the urine were 19%, 31%, and 40%, respectively. […] Moreover, the ratio of serum-to-urine concentrations (S/U) might be an indicator for PFAA excretion in humans because PFAAs could concentrate in serum while urine excretion is considered an important PFAA elimination pathway. The GM values of S/U for PFHxS, PFOA, and PFOS in all samples were 697, 288, and 1782, respectively, indicating the difficulty in PFAA renal elimination from the workers. To exclude the potential effect of individual differences related to demographic information such as body weight and gender, the daily renal clearance rate (Clrenal) was introduced in the study. Clrenal is a parameter defined in Eq (3) that adjusts the S/U through body weight and the gender-specific daily urine excretion volume.
Paired samples with either concentration under the LOD were set as LOD/2 in the Clrenal study. The urine excretion volumes of males and females were set at 1.4 and 1.2 L/day in the study, respectively, and the body weight values of individual workers were obtained from our questionnaires. The calculated Clrenal values for PFHxS, PFOA, PFOS ranged from 2.0 × 10^−4 to 2.3, 9.0 × 10^−5 to 2.4, and 5.0 × 10^−5 to 0.54 mL day^−1 kg^−1 with GM values of 0.023, 0.067 and 0.010 mL day^−1 kg^−1, respectively (Fig. 3). The minimum values of the PFAAs Clrenal were calculated on the basis of LOD/2 instead of ND (not detected) in the present study. […] However, Zhang et al. observed that the Clrenal of PFHxS was the lowest among these 3 type of PFAAs[28]. The median Clrenal of PFAAs in the present study was similar to that of Zhou et al.’s study (0.012 mL day^−1 kg^−1 for PFHxS, 0.061 mL day^−1 kg^−1 for PFOA, and 0.010 mL day^−1 kg^−1 for PFOS)[39]. In contrast, as noted elsewhere, the Clrenal values of PFOA were the highest among those of the three PFAAs[28][38]. The most recent study on the elevated serum concentrations of PFAAs in fishery employees from Tangxun Lake also stated that the median Clrenal of PFOA (0.061 mL day^−1 kg^−1) was higher than those of the PFHxS and PFOS (0.012 and 0.010 mL day^−1 kg^−1)[39]. […] Moreover, the renal clearance rates of PFAAs in humans were not obviously influenced by the PFAAs level in the serum. […] In addition, gender could not be discounted. The Clrenal values of PFOS for the male workers were significant lower than those for the females (p < 0.01). Wong et al. studied the elimination rate constant of PFOS in a USA population and speculated that there might be other sex-specific elimination routes other than menstruation between men and women. No significant differences were found between the Clrenal values of PFOA and PFHxS for the males and females tested in the study.

[2] = cited from earlier work; for Clrenal, median: fishery employees from Tangxun Lake

Row | Compound | Ratio of serum-to-urine concentrations (S/U), GM [1] | Clrenal, GM [1] [mL/day/kg] | Clrenal, range [1] | Renal clearance rate (PFOA) ([1]; sampling year 2008) | Renal clearance rate (PFOA) ([1]; sampling year 2009) | Renal clearance rate (PFOA) ([1]; sampling year 2011) | Renal clearance rate (PFOA) ([1]; sampling year 2012) | Clrenal values obtained from different sources, range [2] [mL/day/kg] | Clrenal, median [2] [mL/day/kg] | Renal clearance rate (PFOS) ([1]; sampling year 2009) | Renal clearance rate (PFOS) ([1]; sampling year 2010) | Renal clearance rate (PFOS) ([1]; sampling year 2011)
1 | O=C(O)C(F)(F)C(F)(F)C(F)(F)C(F)(F)C(F)(F)C(F)(F)C(F)(F)F [PFOA, perfluorooctanoic acid] | 288 | 0.067 | 9.0 × 10^−5 to 2.4 mL day^−1 kg^−1 | 0.093 mL/day/kg and 0.043 mL/day/kg and 0.141 mL/day/kg and 0.074 mL/day/kg and 0.069 mL/day/kg and 0.087 mL/day/kg and 0.012 mL/day/kg and 0.060 mL/day/kg and 0.127 mL/day/kg and 0.027 mL/day/kg and 0.068 mL/day/kg and 0.030 mL/day/kg and 0.111 mL/day/kg and 0.033 mL/day/kg and 0.047 mL/day/kg and 0.161 mL/day/kg and 0.052 mL/day/kg and 0.214 mL/day/kg and 0.096 mL/day/kg and 0.055 mL/day/kg and 0.042 mL/day/kg and 0.106 mL/day/kg and 0.021 mL/day/kg and 0.157 mL/day/kg and 0.058 mL/day/kg and 0.034 mL/day/kg | 0.174 mL/day/kg and 0.318 mL/day/kg and 0.286 mL/day/kg and 0.110 mL/day/kg and 0.366 mL/day/kg and 0.046 mL/day/kg and 0.403 mL/day/kg and 0.070 mL/day/kg and 0.128 mL/day/kg and 0.090 mL/day/kg and 0.114 mL/day/kg and 0.071 mL/day/kg and 0.289 mL/day/kg and 0.235 mL/day/kg and 0.096 mL/day/kg and 0.264 mL/day/kg and 0.117 mL/day/kg and 0.057 mL/day/kg and 0.051 mL/day/kg and 0.262 mL/day/kg and 0.197 mL/day/kg and 0.077 mL/day/kg and 0.363 mL/day/kg | 0.101 mL/day/kg and 0.205 mL/day/kg and 0.124 mL/day/kg and 0.077 mL/day/kg and 0.096 mL/day/kg and 0.081 mL/day/kg and 0.014 mL/day/kg and 0.080 mL/day/kg and 0.027 mL/day/kg and 0.082 mL/day/kg and 0.120 mL/day/kg and 0.066 mL/day/kg and 0.057 mL/day/kg and 0.037 mL/day/kg and 0.063 mL/day/kg and 0.270 mL/day/kg and 0.075 mL/day/kg and 0.060 mL/day/kg and 0.085 mL/day/kg and 0.181 mL/day/kg and 0.107 mL/day/kg and 0.258 mL/day/kg and 0.674 mL/day/kg and 0.290 mL/day/kg and 0.300 mL/day/kg and 0.058 mL/day/kg | 0.089 mL/day/kg and 0.052 mL/day/kg and 0.038 mL/day/kg and 0.045 mL/day/kg and 0.082 mL/day/kg and 0.114 mL/day/kg and 0.012 mL/day/kg and 0.044 mL/day/kg and 0.098 mL/day/kg and 0.049 mL/day/kg and 0.030 mL/day/kg and 0.027 mL/day/kg and 0.029 mL/day/kg and 0.054 mL/day/kg and 0.033 mL/day/kg and 0.199 mL/day/kg and 0.105 mL/day/kg and 0.069 mL/day/kg and 0.236 mL/day/kg and 0.139 mL/day/kg and 0.040 mL/day/kg and 0.084 mL/day/kg and 0.170 mL/day/kg |  |  |  |  | 
2 | O=S(=O)(O)C(F)(F)C(F)(F)C(F)(F)C(F)(F)C(F)(F)C(F)(F)C(F)(F)C(F)(F)F [PFOS, perfluorooctanesulfonate] | 1782 | 0.010 | 5.0 × 10^−5 to 0.54 mL day^−1 kg^−1 |  |  |  |  | 0.01 to 0.1 | 0.010 | 0.028 mL/day/kg and 0.066 mL/day/kg and 0.010 mL/day/kg and 0.013 mL/day/kg and 0.009 mL/day/kg and 0.037 mL/day/kg and 0.018 mL/day/kg and 0.001 mL/day/kg and 0.035 mL/day/kg and 0.004 mL/day/kg and 0.005 mL/day/kg and 0.006 mL/day/kg and 0.003 mL/day/kg and 0.019 mL/day/kg and 0.023 mL/day/kg and 0.007 mL/day/kg and 0.017 mL/day/kg and 0.024 mL/day/kg and 0.030 mL/day/kg and 0.014 mL/day/kg and 0.002 mL/day/kg and 0.032 mL/day/kg | 0.038 mL/day/kg and 0.013 mL/day/kg and 0.014 mL/day/kg and 0.058 mL/day/kg and 0.002 mL/day/kg and 0.004 mL/day/kg and 0.048 mL/day/kg and 0.039 mL/day/kg and 0.008 mL/day/kg and 0.005 mL/day/kg and 0.028 mL/day/kg and 0.009 mL/day/kg and 0.041 mL/day/kg and 0.007 mL/day/kg and 0.027 mL/day/kg and 0.026 mL/day/kg and 0.006 mL/day/kg and 0.034 mL/day/kg and 0.083 mL/day/kg and 0.020 mL/day/kg and 0.017 mL/day/kg and 0.025 mL/day/kg and 0.010 mL/day/kg | 0.007 mL/day/kg and 0.009 mL/day/kg and 0.024 mL/day/kg and 0.052 mL/day/kg and 0.018 mL/day/kg and 0.016 mL/day/kg and 0.028 mL/day/kg and 0.021 mL/day/kg and 0.017 mL/day/kg and 0.029 mL/day/kg and 0.004 mL/day/kg and 0.006 mL/day/kg and 0.003 mL/day/kg and 0.025 mL/day/kg and 0.001 mL/day/kg and 0.013 mL/day/kg and 0.023 mL/day/kg and 0.022 mL/day/kg and 0.020 mL/day/kg and 0.033 mL/day/kg and 0.002 mL/day/kg and 0.091 mL/day/kg and 0.039 mL/day/kg and 0.041 mL/day/kg
3 | O=S(=O)(O)C(F)(F)C(F)(F)C(F)(F)C(F)(F)C(F)(F)C(F)(F)F [PFHxS, perfluorohexane sulfonate] | 697 | 0.023 | 2.0 × 10^−4 to 2.3 mL day^−1 kg^−1 |  |  |  |  |  | 0.012 |  |  | 
